From patent publication US7838238B2, “Method for screening anti-HIV Drugs and a diagnostic method of AIDS” (CellFree Sciences Co., Ltd., priority 2008, dated 2010)
Peptide text beside a SMILES is read from it. * marks the point of attachment. Cbz = O=C(OCc1ccccc1)*

Test system: intracellular Gag in SOCS1-siRNA HeLa cells
Assay: Immunoblotting of intracellular Gag-GFP in SOCS1-siRNA HeLa cells treated with NH4Cl or MG132
Assay type: cell-based, human
Procedure: (F) HeLa cells were transfected with Cag-GFP and cotransfected with either control-siRNA or SOCS1-siRNA I. After 36 hours, the cells were treated with a mock solution, 10 mM NH4Cl or 10 μM MG132 for another 16 hours. Cell were then harvested and subjected to immunoblotting analysis with anti-GCF or anti-β-actin antibodies.

Compound	level of intracellular Gag (10 μM MG132, 16 hours)	level of intracellular Gag (10 mM NH4Cl, 16 hours)
CC(C)C[C@@H](C=O)NC(=O)[C@H](CC(C)C)NC(=O)[C@H](CC(C)C)NC(=O)OCc1ccccc1 [MG132] (Cbz-Leu-Leu-Leu-aldehyde)	not	
Cl.N [NH4Cl]		significantly increased
